Assay results published in ChEMBL document CHEMBL3885861, “Open TG-GATES”.

Species: Rattus norvegicus
Test: Open TG-GATES - Regimen: Single
Type: toxicity, organism-based, Sprague-Dawley
Set-up: regimen Single, gender Male, age 6 weeks
Conditions: in vivo, po, route gavage; for APTT / Bas / Eos / Fbg / Hb / Ht / Lym / MCH / MCHC / MCV / Mono / Neu / PT / Plat / RBC / Ret / WBC: tissue Blood; for KIDNEY_L / KIDNEY_R / KIDNEY_TOTAL: tissue Kidney; for LIVER: tissue Liver; for A/G / ALP / ALT / AST / BUN / CRE / Ca / Cl / DBIL / GLC / IP / K / LDH / Na / PL / RALB / TBIL / TC / TG / TP / gamma-GTP: tissue Plasma
[1] = 300 mg/kg, 3 h, dose level Middle
[2] = 300 mg/kg, 6 h, dose level Middle
[3] = 300 mg/kg, 9 h, dose level Middle
[4] = 300 mg/kg, 24 h, dose level Middle
[5] = 1000 mg/kg, 3 h, dose level High
[6] = 1000 mg/kg, 6 h, dose level High
[7] = 1000 mg/kg, 9 h, dose level High
[8] = 1000 mg/kg, 24 h, dose level High

Cc1nnc2n1-c1ccc(Cl)cc1C(c1ccccc1Cl)=NC2 [TRIAZOLAM]
TERMINAL_BW [1]: 190.9 g
APTT [1]: 16.4 s
Bas [1]: 0.2%
Eos [1]: 1%
Fbg [1]: 270.4 mg/dL
Hb [1]: 13.9 g/dL
Ht [1]: 42.3%
Lym [1]: 73.8%
MCH [1]: 21 pg
MCHC [1]: 33%
MCV [1]: 63.6 fL
Mono [1]: 3%
Neu [1]: 21.4%
PT [1]: 13.4 s
Plat [1]: 117 x10_4/uL
RBC [1]: 665.8 x10_4/ul
Ret [1]: 9%
WBC [1]: 63.2 x10_2/uL
KIDNEY_L [1]: 0.8 g
KIDNEY_R [1]: 0.8 g
KIDNEY_TOTAL [1]: 1.7 g
LIVER [1]: 8.6 g
A/G [1]: 0.9
ALP [1]: 1451.2 IU/L
ALT [1]: 40.2 IU/L
AST [1]: 71 IU/L
BUN [1]: 9.6 mg/dL
CRE [1]: 0.1 mg/dL
Ca [1]: 11.3 mg/dL
Cl [1]: 103.2 meq/L
DBIL [1]: 0.008 mg/dL
GLC [1]: 189 mg/dL
IP [1]: 10.7 mg/dL
K [1]: 4.2 meq/L
LDH [1]: 79.4 IU/L
Na [1]: 141.4 meq/L
PL [1]: 169.4 mg/dL
RALB [1]: 2.5 g/dL
TBIL [1]: 0.066 mg/dL
TC [1]: 90.4 mg/dL
TG [1]: 60.8 mg/dL
TP [1]: 5.2 g/dL
gamma-GTP [1]: 1.8 IU/L
TERMINAL_BW [2]: 191.6 g
APTT [2]: 17.4 s
Bas [2]: 0%
Eos [2]: 0.4%
Fbg [2]: 282.8 mg/dL
Hb [2]: 13.8 g/dL
Ht [2]: 42.4%
Lym [2]: 77.2%
MCH [2]: 20.5 pg
MCHC [2]: 32.6%
MCV [2]: 63 fL
Mono [2]: 2.4%
Neu [2]: 18.8%
PT [2]: 13.5 s
Plat [2]: 123.3 x10_4/uL
RBC [2]: 674.2 x10_4/ul
Ret [2]: 9.2%
WBC [2]: 77.5 x10_2/uL
KIDNEY_L [2]: 0.9 g
KIDNEY_R [2]: 0.9 g
KIDNEY_TOTAL [2]: 1.8 g
LIVER [2]: 8.3 g
A/G [2]: 0.9
ALP [2]: 1395 IU/L
ALT [2]: 35.6 IU/L
AST [2]: 66.6 IU/L
BUN [2]: 10.2 mg/dL
CRE [2]: 0.1 mg/dL
Ca [2]: 11.2 mg/dL
Cl [2]: 103 meq/L
DBIL [2]: 0.01 mg/dL
GLC [2]: 183.4 mg/dL
IP [2]: 10.9 mg/dL
K [2]: 4.1 meq/L
LDH [2]: 63.2 IU/L
Na [2]: 141.8 meq/L
PL [2]: 147.6 mg/dL
RALB [2]: 2.5 g/dL
TBIL [2]: 0.068 mg/dL
TC [2]: 81.2 mg/dL
TG [2]: 37.6 mg/dL
TP [2]: 5.3 g/dL
gamma-GTP [2]: 1 IU/L
TERMINAL_BW [3]: 193.6 g
APTT [3]: 16.7 s
Bas [3]: 0%
Eos [3]: 0.8%
Fbg [3]: 279.6 mg/dL
Hb [3]: 13.5 g/dL
Ht [3]: 41.2%
Lym [3]: 74%
MCH [3]: 21.4 pg
MCHC [3]: 32.8%
MCV [3]: 65.5 fL
Mono [3]: 2.2%
Neu [3]: 22%
PT [3]: 13.5 s
Plat [3]: 121.1 x10_4/uL
RBC [3]: 629.6 x10_4/ul
Ret [3]: 9.5%
WBC [3]: 87.2 x10_2/uL
KIDNEY_L [3]: 0.9 g
KIDNEY_R [3]: 0.8 g
KIDNEY_TOTAL [3]: 1.7 g
LIVER [3]: 7.6 g
A/G [3]: 0.9
ALP [3]: 1488.6 IU/L
ALT [3]: 32 IU/L
AST [3]: 65.2 IU/L
BUN [3]: 10 mg/dL
CRE [3]: 0.2 mg/dL
Ca [3]: 11 mg/dL
Cl [3]: 104.4 meq/L
DBIL [3]: 0.01 mg/dL
GLC [3]: 188 mg/dL
IP [3]: 10.6 mg/dL
K [3]: 4.4 meq/L
LDH [3]: 57.4 IU/L
Na [3]: 141.2 meq/L
PL [3]: 144.2 mg/dL
RALB [3]: 2.4 g/dL
TBIL [3]: 0.058 mg/dL
TC [3]: 74.2 mg/dL
TG [3]: 49.4 mg/dL
TP [3]: 5.1 g/dL
gamma-GTP [3]: 1.2 IU/L
TERMINAL_BW [4]: 207.4 g
APTT [4]: 28.1 s
Bas [4]: 0%
Eos [4]: 1%
Fbg [4]: 263.2 mg/dL
Hb [4]: 13.5 g/dL
Ht [4]: 40.8%
Lym [4]: 74.8%
MCH [4]: 21 pg
MCHC [4]: 33%
MCV [4]: 63.6 fL
Mono [4]: 2.6%
Neu [4]: 21%
PT [4]: 13.3 s
Plat [4]: 127 x10_4/uL
RBC [4]: 643.6 x10_4/ul
Ret [4]: 8%
WBC [4]: 94.8 x10_2/uL
KIDNEY_L [4]: 0.9 g
KIDNEY_R [4]: 0.9 g
KIDNEY_TOTAL [4]: 1.8 g
LIVER [4]: 9.2 g
A/G [4]: 0.9
ALP [4]: 1802.4 IU/L
ALT [4]: 44.4 IU/L
AST [4]: 66.2 IU/L
BUN [4]: 11.8 mg/dL
CRE [4]: 0.2 mg/dL
Ca [4]: 11.3 mg/dL
Cl [4]: 102.8 meq/L
DBIL [4]: 0.018 mg/dL
GLC [4]: 180.2 mg/dL
IP [4]: 9.2 mg/dL
K [4]: 4.5 meq/L
LDH [4]: 73.6 IU/L
Na [4]: 140.8 meq/L
PL [4]: 155.2 mg/dL
RALB [4]: 2.6 g/dL
TBIL [4]: 0.058 mg/dL
TC [4]: 77.6 mg/dL
TG [4]: 88 mg/dL
TP [4]: 5.4 g/dL
gamma-GTP [4]: 1 IU/L
TERMINAL_BW [5]: 193.6 g
APTT [5]: 16 s
Bas [5]: 0%
Eos [5]: 1%
Fbg [5]: 277.8 mg/dL
Hb [5]: 13.8 g/dL
Ht [5]: 41.7%
Lym [5]: 72%
MCH [5]: 20.9 pg
MCHC [5]: 33.2%
MCV [5]: 63 fL
Mono [5]: 3.2%
Neu [5]: 23%
PT [5]: 13.4 s
Plat [5]: 135.1 x10_4/uL
RBC [5]: 663 x10_4/ul
Ret [5]: 9.1%
WBC [5]: 64.9 x10_2/uL
KIDNEY_L [5]: 0.9 g
KIDNEY_R [5]: 0.9 g
KIDNEY_TOTAL [5]: 1.8 g
LIVER [5]: 8.3 g
A/G [5]: 0.9
ALP [5]: 1289.6 IU/L
ALT [5]: 38.8 IU/L
AST [5]: 72 IU/L
BUN [5]: 9.4 mg/dL
CRE [5]: 0.1 mg/dL
Ca [5]: 11 mg/dL
Cl [5]: 102.6 meq/L
DBIL [5]: 0.008 mg/dL
GLC [5]: 174.6 mg/dL
IP [5]: 10.4 mg/dL
K [5]: 4.3 meq/L
LDH [5]: 97.8 IU/L
Na [5]: 139.6 meq/L
PL [5]: 148.8 mg/dL
RALB [5]: 2.4 g/dL
TBIL [5]: 0.064 mg/dL
TC [5]: 78.2 mg/dL
TG [5]: 50 mg/dL
TP [5]: 5.2 g/dL
gamma-GTP [5]: 1 IU/L
TERMINAL_BW [6]: 193.6 g
APTT [6]: 18.3 s
Bas [6]: 0%
Eos [6]: 0.6%
Fbg [6]: 282 mg/dL
Hb [6]: 13.9 g/dL
Ht [6]: 42.3%
Lym [6]: 75.8%
MCH [6]: 20.6 pg
MCHC [6]: 32.8%
MCV [6]: 62.8 fL
Mono [6]: 2.2%
Neu [6]: 20.4%
PT [6]: 13.5 s
Plat [6]: 122.7 x10_4/uL
RBC [6]: 674 x10_4/ul
Ret [6]: 8.5%
WBC [6]: 87.5 x10_2/uL
KIDNEY_L [6]: 0.9 g
KIDNEY_R [6]: 0.9 g
KIDNEY_TOTAL [6]: 1.8 g
LIVER [6]: 8.3 g
A/G [6]: 0.9
ALP [6]: 1325.6 IU/L
ALT [6]: 36 IU/L
AST [6]: 67.4 IU/L
BUN [6]: 10 mg/dL
CRE [6]: 0.1 mg/dL
Ca [6]: 11.2 mg/dL
Cl [6]: 103.2 meq/L
DBIL [6]: 0.012 mg/dL
GLC [6]: 184.2 mg/dL
IP [6]: 10.9 mg/dL
K [6]: 4.5 meq/L
LDH [6]: 87.2 IU/L
Na [6]: 141.6 meq/L
PL [6]: 162.8 mg/dL
RALB [6]: 2.5 g/dL
TBIL [6]: 0.056 mg/dL
TC [6]: 85.4 mg/dL
TG [6]: 68.2 mg/dL
TP [6]: 5.3 g/dL
gamma-GTP [6]: 1.6 IU/L
TERMINAL_BW [7]: 192.1 g
APTT [7]: 16.7 s
Bas [7]: 0%
Eos [7]: 0.6%
Fbg [7]: 282.6 mg/dL
Hb [7]: 13.3 g/dL
Ht [7]: 40.5%
Lym [7]: 74.2%
MCH [7]: 20.9 pg
MCHC [7]: 32.8%
MCV [7]: 63.8 fL
Mono [7]: 2.4%
Neu [7]: 21.6%
PT [7]: 13.9 s
Plat [7]: 116.9 x10_4/uL
RBC [7]: 635.4 x10_4/ul
Ret [7]: 9.5%
WBC [7]: 86.1 x10_2/uL
KIDNEY_L [7]: 0.9 g
KIDNEY_R [7]: 0.9 g
KIDNEY_TOTAL [7]: 1.8 g
LIVER [7]: 7.6 g
A/G [7]: 0.9
ALP [7]: 1384.4 IU/L
ALT [7]: 41.8 IU/L
AST [7]: 73.4 IU/L
BUN [7]: 9 mg/dL
CRE [7]: 0.1 mg/dL
Ca [7]: 10.9 mg/dL
Cl [7]: 104 meq/L
DBIL [7]: 0.014 mg/dL
GLC [7]: 177.8 mg/dL
IP [7]: 10.6 mg/dL
K [7]: 4.4 meq/L
LDH [7]: 84.2 IU/L
Na [7]: 141 meq/L
PL [7]: 148 mg/dL
RALB [7]: 2.5 g/dL
TBIL [7]: 0.064 mg/dL
TC [7]: 76.4 mg/dL
TG [7]: 56.4 mg/dL
TP [7]: 5.1 g/dL
gamma-GTP [7]: 1.4 IU/L
TERMINAL_BW [8]: 208.3 g
APTT [8]: 17 s
Bas [8]: 0.2%
Eos [8]: 0.8%
Fbg [8]: 290.2 mg/dL
Hb [8]: 13.9 g/dL
Ht [8]: 41.6%
Lym [8]: 75.4%
MCH [8]: 20.8 pg
MCHC [8]: 33.4%
MCV [8]: 62.2 fL
Mono [8]: 2.8%
Neu [8]: 20.4%
PT [8]: 13 s
Plat [8]: 128.9 x10_4/uL
RBC [8]: 669.2 x10_4/ul
Ret [8]: 8.2%
WBC [8]: 97.7 x10_2/uL
KIDNEY_L [8]: 0.9 g
KIDNEY_R [8]: 0.9 g
KIDNEY_TOTAL [8]: 1.8 g
LIVER [8]: 9.9 g
A/G [8]: 0.9
ALP [8]: 1921.8 IU/L
ALT [8]: 44.8 IU/L
AST [8]: 60.2 IU/L
BUN [8]: 13.6 mg/dL
CRE [8]: 0.2 mg/dL
Ca [8]: 11.5 mg/dL
Cl [8]: 100.8 meq/L
DBIL [8]: 0.014 mg/dL
GLC [8]: 175.6 mg/dL
IP [8]: 10 mg/dL
K [8]: 4.3 meq/L
LDH [8]: 84.4 IU/L
Na [8]: 141.4 meq/L
PL [8]: 167.6 mg/dL
RALB [8]: 2.7 g/dL
TBIL [8]: 0.058 mg/dL
TC [8]: 85.2 mg/dL
TG [8]: 84.2 mg/dL
TP [8]: 5.6 g/dL
gamma-GTP [8]: 1 IU/L
